# Measured values from patent publication US20120196927A1, “PROPHYLACTIC AND/OR THERAPEUTIC AGENT FOR METABOLIC SYNDROME” (priority 2009, published 2012).
# Tests used:
# Type in all cases: in vivo, mouse
# [1] = tested on: adipose cells of the white adipose tissue; test: Diabetes model mice: size of adipose cells of the white adipose tissue; conditions: 200 mg/kg of nobiletin
# GLUT4 protein = test: Diabetes model mice: GLUT4 protein expression level (Western blotting); conditions: ob/ob mice, nobiletin 200 mg/kg/day, Pioglitazone 30 mg/kg/day
# Procedure: After finishing the experiment, the white adipose tissue and skeletal muscle were excised according to that described in the example 1, protein expression level of GLUT 4 were detected by using Western blotting method. The expression levels of GLUT4 protein were determined by using Na^+/K^+ ATPase α-1 protein as an internal reference.
# C57BL/6J-ob/ob mice = test: Diabetes model mice: fasting blood glucose level; conditions: nobiletin 200 mg/kg/day, Pioglitazone 30 mg/kg/day p.o.
# Procedure: Two weeks or 5 weeks from the beginning of the administration, the fasting blood glucose was measured (n=10). The measurement of the blood glucose level was carried out as the same as that of the example 1.
# male C57BL/6 mice = test: Nobiletin, obesity-induced mice: blood lipid, glucose and adiponectin level; conditions: HFD; for Adipo *2 (Relative level of adiponectin): blood adiponectin to total weight of the white adipose tissue
# Procedure: After the completion of the experiment, the levels of the blood neutral fat, total cholesterol, glucose, and adiponectin in the fating state, and those of the blood neutral fat, total cholesterol, and glucose in satiety state were determined as the same as those in the Example 1. In the table 22, relative adiponectin level means the ratio of specific level of the blood adiponectin to the total weight of the white adipose tissue.
# [2] = Western blotting, Vehicle = 1.00, 5 weeks
# [3] = Fasting state, nobiletin 10 mg/kg/day p.o. 5 weeks
# [4] = Fasting state, nobiletin 100 mg/kg/day p.o. 5 weeks
# [5] = Satiety state, nobiletin 10 mg/kg/day p.o. 5 weeks
# [6] = Satiety state, nobiletin 100 mg/kg/day p.o. 5 weeks
compound,measurement,setting,value
COc1ccc(-c2cc(=O)c3c(OC)c(OC)c(OC)c(OC)c3o2)cc1OC [nobiletin],shrinking of enlarged adipose cells of the white adipose tissue,[1],fails to shrink the adipose cells
same,"Gene expression level (ratio), Skeletal muscle (GLUT4 protein)",GLUT4 protein; [2],6.32
same,"Gene expression level (ratio), White adipose tissue (GLUT4 protein)",GLUT4 protein; [2],1.75
same,"GLUT4 protein expression amount in the skeletal muscle, times higher than vehicle administration group",GLUT4 protein,about 6 times
same,"GLUT4 protein expression level in the white adipose tissue, times higher than vehicle administration group",GLUT4 protein,1.7 times
same,Blood glucose level (fasting),C57BL/6J-ob/ob mice; 0 week after administration,175.61 ± 11.44 mg/dL
same,Blood glucose level (fasting),C57BL/6J-ob/ob mice; 2 weeks after administration,169.22 ± 13.22 mg/dL
same,Blood glucose level (fasting),C57BL/6J-ob/ob mice; 5 weeks after administration,148.46 ± 7.56 mg/dL
same,"Blood level, Adipo *1 (adiponectin)",male C57BL/6 mice; [3],7.19 ± 0.82 µg/mL
same,"Blood level, Glucose",male C57BL/6 mice; [3],157.47 ± 10.54 mg/dL
same,"Blood level, T-CHO",male C57BL/6 mice; [3],109.88 ± 9.09 mg/dL
same,"Blood level, TG",male C57BL/6 mice; [3],79.99 ± 8.04 mg/dL
same,"Blood level, Adipo *1 (adiponectin)",male C57BL/6 mice; [4],6.96 ± 0.99 µg/mL
same,"Blood level, Glucose",male C57BL/6 mice; [4],128.49 ± 5.59 mg/dL
same,"Blood level, T-CHO",male C57BL/6 mice; [4],131.55 ± 8.63 mg/dL
same,"Blood level, TG",male C57BL/6 mice; [4],78.69 ± 6.57 mg/dL
same,"Blood level, Glucose",male C57BL/6 mice; [5],224 ± 24.67 mg/dL
same,"Blood level, T-CHO",male C57BL/6 mice; [5],147.47 ± 10.40 mg/dL
same,"Blood level, TG",male C57BL/6 mice; [5],141.05 ± 12.25 mg/dL
same,"Blood level, Glucose",male C57BL/6 mice; [6],224.76 ± 21.88 mg/dL
same,"Blood level, T-CHO",male C57BL/6 mice; [6],169.24 ± 6.03 mg/dL
same,"Blood level, TG",male C57BL/6 mice; [6],100.80 ± 14.95 mg/dL
same,Adipo *2 (Relative level of adiponectin),"male C57BL/6 mice; Fasting state, nobiletin 10 mg/kg/day p.o.",3.87 ± 0.86 µg/mL/g
same,Adipo *2 (Relative level of adiponectin),"male C57BL/6 mice; Fasting state, nobiletin 100 mg/kg/day p.o.",5.34 ± 0.97 µg/mL/g
